The values below come from publication PMC3056842 (Malaria Journal, 2011).

SMILES strings stand for the structures. Where “and” joins values, the source holds several entries; their conditions need not be identical. Equal values may be shown once. Entries after “also recorded” stand apart in the source; their conditions may differ.

As usually defined, the AUC is the area under the concentration-time curve, a measure of exposure. A higher AUC goes with more exposure. In general, CL/F refers to clearance divided by bioavailability, as obtained after extravascular dosing. As a reminder, the Cmax is the maximum level reached in the sampled fluid or tissue. In general, fraction unbound refers to the share of the substance not bound to proteins or other matrix. A higher fraction unbound goes with weak binding. Broadly, the Tmax is the time from dosing to the highest level. As a reminder, the half-life is how long it takes for the measured level to halve. As a reminder, the Vd/F is the apparent distribution volume after extravascular dosing.

In series [1] the test system is Plasmodium falciparum. The series is described as follows: Pharmacodynamics of AS: parasitaemia on malaria smears after dosing. The series is classed as in vivo. The following applies: for Parasitaemic - n (%) / Parasite density (where > 0): 12 hours after 200 mg oral AS. Here is the method:
To determine if women met the eligibility criteria, a complete medical history and physical examination was performed by a study physician; sociodemographic data was collected by a study nurse. Haematocrit was measured using a microhaematocrit centrifuge (Hawksley Haematospin 1400, Hawksley & Sons, Ltd, UK). Thick and thin blood films were stained with Giemsa and then read to determine parasite species and the density of P. falciparum asexual stages. Parasite density, based on examination of at least 200 high-power microscope fields, was calculated as (# trophozoites/#white blood cells)*6000. Human Immunodeficiency Virus (HIV) serology was determined using the Determine 1/2 HIV Test Kit (Inverness Medical Professional Diagnostics, Princeton, NJ). Liver function was assessed by measuring aspartate aminotransferase (AST) and alanine aminotransferase (ALT) in plasmaPiccolo Portable Chemistry Analyser, Abaxis, USA). Alpha-1-Acid glycoprotein was determined in serum samples using radial immunodiffusion (Kent Laboratories, Bellingham, WA, USA). […]

Series [2] can be described thus: clinical. Conditions: for CL/F: DHA CL/F; for fraction unbound: DHA FF (free fraction); for Tmax: DHA Tmax; for half-life: DHA T½; for Vd/F: DHA Vd/F. On the procedure:
The four tablets were given orally with 240 mL water under medical supervision. A catheter was inserted into a forearm vein for pharmacokinetic sample collection and flushed after each blood draw with saline solution. […] Blood for malaria smears were taken by finger prick at pre-dose and at 12, 24, 30, 36, 42 and 48 hours post-dose. Malaria smears were also performed on days 7, 14 and 28.
The persistence of malaria infection and adverse events were tracked for 28 days after SP administration. Babies born from the pregnant women cohort were followed until one year of age and development assessed.
The reconstituted extracts were chromatographed isocratically and the compounds detected and quantified by mass spectroscopy.
Concentrations below the lower limit of quantification were assigned a value of zero.
The ratio of the AUC during pregnancy to the AUC at postpartum (after log transformation) was considered a measure of the impact of pregnancy on systemic exposure. […] The "no effect" interval was selected based on the dose-ranging study by Angus and coworkers. […] Statistical analyses were performed using SAS/STAT software, version 9.2 (SAS Institute, Inc., Cary, NC, 2008). […] Spearman correlations were used to look for associations among the pregnant and control population. All p-values were 2-sided.

Details of series [3]: species or system human. Conditions: in vivo. Here is the method:
To determine if women met the eligibility criteria, a complete medical history and physical examination was performed by a study physician; sociodemographic data was collected by a study nurse. Haematocrit was measured using a microhaematocrit centrifuge (Hawksley Haematospin 1400, Hawksley & Sons, Ltd, UK). Thick and thin blood films were stained with Giemsa and then read to determine parasite species and the density of P. falciparum asexual stages. […] Human Immunodeficiency Virus (HIV) serology was determined using the Determine 1/2 HIV Test Kit (Inverness Medical Professional Diagnostics, Princeton, NJ). Liver function was assessed by measuring aspartate aminotransferase (AST) and alanine aminotransferase (ALT) in plasmaPiccolo Portable Chemistry Analyser, Abaxis, USA). Alpha-1-Acid glycoprotein was determined in serum samples using radial immunodiffusion (Kent Laboratories, Bellingham, WA, USA).

The subject of series [4] is Plasmodium falciparum. The following applies: sigmoid Emax pharmacodynamic model of PCT; cited from earlier work.
The conditions of series [5]: artesunate 4 mg/kg with Malarone, final day of three day course; second and third trimester pregnant women, Thailand; 90% range 0.9-60.7; cited from earlier work.
Where [6] appears, read: female, human, plasma, po, 200 mg, 200 mg oral AS, ante-partum pregnant cases, median [range].
Where [7] appears, read: female, human, plasma, po, 200 mg, 200 mg oral AS, non-pregnant controls, median [range].
The mark [8] stands for this setting: female, human, plasma, po, 200 mg, 200 mg oral AS, post-partum (3 months), median [range].

In the case of `C[C@H]1[C@H](OC(=O)CCC(=O)O)O[C@@H]2O[C@@]3(C)CC[C@H]4[C@H](C)CC[C@@H]1[C@@]24OO3` [AS, artesunate], the “aparasitaemic at 12 hours among those parasitaemic at t = 0” value in series [1] (200 mg oral AS, 13 of the 14 non-pregnant controls) stood at 93%. Moreover, the “aparasitaemic at 12 hrs among those parasitaemic at t = 0” value in series [1] (200 mg oral AS, 21 of the 24 pregnant women) was 87.5%. For the same molecule, the “Parasitaemic - n (%)” value in series [1] (all pregnant cases, N 26) is given as 3 (11.5); in series [1] (non-pregnant controls, N 25) it was 1 (4.0); in series [1] (pregnant cases Window 1 (22-26 wks GA), N 13), 3 (23.1); in series [1] (pregnant cases Window 2 (32-36 wks GA), N 13) it was 0 (0). In addition, the “Parasite density (where > 0)” value is listed as 87 (44 - 286) parasites/μL in series [1] (all pregnant cases, median (interquartile range)); 24 -- parasites/μL in series [1] (non-pregnant controls, median); 87 (44 - 286) parasites/μL in series [1] (pregnant cases Window 1, median (interquartile range)). In series [1] (single 200 mg oral dose of AS, second and third trimester pregnant women), the “efficacy (in words)” value is reported as “effective; also recorded: rapid clearance of parasitaemia”. Moreover, the “range of AS AUCs among the subjects” value in series [2] (female, human, in vivo, po, 200 mg) is given as “more than 17 fold”. The AUC in series [2] (female, human, in vivo, po, 200 mg, median AS AUC) is 205 ng·h/mL. In series [3], the “infant development at one year of age” value is “normal physical and neurological development”. In addition, the pregnancy outcome in series [3] is “singleton live births”. For the same molecule, the Hill slope coefficient in series [4] was 10.

For `C[C@H]1[C@@H](O)O[C@@H]2O[C@@]3(C)CC[C@H]4[C@H](C)CC[C@@H]1[C@@]24OO3` [DHA, dihydroartemisinin], in series [5], the “median DHA Vd/F” value is reported as 3.4 L/kg. Also, the “median free AUC for DHA in pregnant women as percentage of non-pregnant controls” value in series [2] (200 mg oral AS) was determined as 79%. For the same molecule, the “median total AUC for DHA in pregnant women as percentage of non-pregnant controls” value in series [2] (200 mg oral AS) is recorded as 62%. Also, in series [2] (200 mg oral AS, ante-partum pregnant cases, median [range]), the “DHA AUCall” value is 1730.5 [1034.7 - 4085.5] ng*h/mL. Further, in series [2] (200 mg oral AS, non-pregnant controls, median [range]), the “DHA T½” value is 1.41 [0.86 - 6.55] h. In addition, the AUC in series [2] (female, human, plasma, po, 200 mg, DHA AUCall, 200 mg oral AS, ante-partum pregnant cases, median [range]) was found to be 1730 ng·h/mL; in series [2] (female, human, plasma, po, 200 mg, DHA AUCall, 200 mg oral AS, non-pregnant controls, median [range]), 2790 ng·h/mL; in series [2] (female, human, plasma, po, 200 mg, DHA AUCall, 200 mg oral AS, post-partum (3 months), median [range]), 2120 ng·h/mL. The CL/F in series [2] (setting [6]) is 23.2 mL/min/kg; in series [2] (setting [7]), 17.8 mL/min/kg; in series [2] (setting [8]), 21 mL/min/kg. The Cmax was determined as 905 ng/mL in series [2] (female, human, plasma, po, 200 mg, DHA Cmax, 200 mg oral AS, ante-partum pregnant cases, median [range]); 1280 ng/mL in series [2] (female, human, plasma, po, 200 mg, DHA Cmax, 200 mg oral AS, non-pregnant controls, median [range]); 980 ng/mL in series [2] (female, human, plasma, po, 200 mg, DHA Cmax, 200 mg oral AS, post-partum (3 months), median [range]); 1280 ng/mL in series [2] (female, human, plasma, po, 200 mg, median DHA Cmax, 200 mg oral AS, non-pregnant control group); 905 ng/mL in series [2] (female, human, plasma, po, 200 mg, median DHA Cmax, 200 mg oral AS, pregnant group). In addition, the results for the fraction unbound in series [2] (setting [6]), in series [2] (setting [7]) and in series [2] (setting [8]) were 0.21, 0.18 and 0.19, respectively. The values for the Tmax in series [2] (setting [6]), in series [2] (setting [7]) and in series [2] (setting [8]) were 1.5 h, 1.52 h and 1.5 h, respectively. Further, the half-life in series [2] (setting [6]) was 1.28 h; in series [2] (setting [8]), 1.63 h. The Vd/F in series [2] (setting [6]) is 157 L and 2.84 L/kg; in series [2] (setting [7]) it was 128 L and 2.45 L/kg; in series [2] (setting [8]), 158 L and 3 L/kg.
